From patent US9868763B2, “Modulators of protease activated receptors” (The University of Queensland, priority 2011, dated 2018)
Blank lines part the entries; values can stand above or below the compound they belong to.

Key:
PAR2 [1] = molecular target: T1, PAR2 (Homo sapiens, UniProt P55085); conditions: cited from earlier work
T1 sequence (P55085 26-397): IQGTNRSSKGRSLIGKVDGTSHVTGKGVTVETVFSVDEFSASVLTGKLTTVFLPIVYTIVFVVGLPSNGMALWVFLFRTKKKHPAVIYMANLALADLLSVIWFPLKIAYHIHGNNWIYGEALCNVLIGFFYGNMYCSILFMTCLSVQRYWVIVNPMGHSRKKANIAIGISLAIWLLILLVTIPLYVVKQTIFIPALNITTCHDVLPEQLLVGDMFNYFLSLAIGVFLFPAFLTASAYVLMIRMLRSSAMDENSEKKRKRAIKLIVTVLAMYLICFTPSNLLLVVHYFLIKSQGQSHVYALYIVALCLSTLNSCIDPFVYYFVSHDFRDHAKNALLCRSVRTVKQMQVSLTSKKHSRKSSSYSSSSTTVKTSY

[2] = system: 2furoyl-LIGRLO-NH2-induced paw oedema; experiment: PAR2 agonist-induced paw oedema; type: in vivo, Wistar rat; conditions: 10 mg/kg p.o. in olive oil, agonist 350 μg/paw 2 h after oral dose
Procedure: The methods used are based on those previously described (Kelso, E. B., et al. Arthritis Rheum 2007, 56, 765-71; Kelso, E. B., et al. J Pharmacol Exp Ther 2006, 316, 1017-24; and Vergnolle, N. J Immunol 1999, 163, 5064-9). Male Wistar rats (n=3 per group) are used. Briefly, rats are given either 5 or 10 mg/kg of a compound of the present invention (p.o. via gavage in olive oil, approx. 500 μL, weight adjusted). Control animals receive only olive oil (500 μL p.o.). Two hours later, the PAR2 agonist 2-furoyl-LIGRLO (350 μg/paw in saline, 100 μL) is injected into the plantar surface (i.pl.) of the right paw pad using a 30 G needle. The left paw acts as a control, receiving saline only. Paw thickness and width are measured after 30 minutes and hourly using digital calipers (World Precision Instruments, USA) and swelling is calculated in area (mm^2; thickness multiplied by width) and expressed as a percentage change from baseline of each individual paw.
Based on previous methods (Kelso E B et al., J Pharmacol Exp Ther 2006, 316(3):1017-24; Suen J Y et al., Br J Pharmacol 2011, doi: 10.1111/j.1476-5381.2011.01610.x.), PAR2 antagonist 52 (10 mg/kg s.c.; n=4), ENMD-1068 (100 mg/kg s.c.; n=4) or vehicle control (DMSO s.c.; n=2) were administered to male Wistar rats. Baseline paw thickness and width were measured using digital calipers (World Precision Instruments, USA) expressed in area (mm^2; thickness×width). Fifteen minutes later, 2Furoyl-LIGLRO-NH2 (350 μg/paw in 100 μL saline) was injected into of the right hind paw pad (intraplantar, i.pl.). The left hind paw acted as a control, receiving saline only. In a separate experiment, vehicle (500 μL olive oil) versus PAR2 antagonist 52 (10 mg/kg p.o. in 500 μL olive oil) only were administered orally to two groups of rats (4 per group). Two hours later, β-tryptase (human recombinant lung, 20 μg in 100 μL saline) was injected into the right hind paw pad (vehicle in left for control) of all animals in each group. In all experiments, paw swelling was measured and expressed in area (mm^2; thickness×width) and plotted as % change from baseline of each individual paw.

[3] = Stability in rat liver homogenate; type: in vitro ADME, Wistar rat; conditions: 37 °C, up to 180 min
Procedure: Blood and liver is collected form non-drug dosed male and female Wistar rats (aged 8-9 weeks, 200-250 g and 250-300 g respectively). Bloods are centrifuged at 8 K rpm for 5 min. Plasma are pooled and stored at −80° C. for later use. The rat livers are homogenized, diluted with three volumes of PBS, cloth filtered. The filtrate is used directly for stability studies.
Each compound is dissolved in DMSO to make 5 mM stock solution. 10 μL of the stock is diluted with either rat plasma or liver homogenate (490 μL) to make up a starting concentration of […] (triplicates). The mixtures are vortexed and incubated at 37° C. At each time point of 0, 30, 60 and 180 minutes, 100 μL of the mixture is taken and diluted with 300 μL of acetonitrile. The mixture is vortexed and centrifuged. 350 μL of the liquid is transferred into a microfuge tube and concentrated using a rotational vacuum concentrator (Christ Beta-RVC, supplied by Quantum Scientific). 100 μL of acetonitrile-water (9:1, v/v) is added to the residue, vortexed and immediately analysed by LCMS/MS. Data from these experiments are expressed as percent of peak area recorded from the LCMS/MS trace at time zero (t0).

PAR2 [4] = molecular target: T1, PAR2; experiment: PAR2 agonist inhibition (antagonism): intracellular Ca2+ release in HT29 cells; type: cell-based; parameters: endogenous in cells; host or cells: HT29 (human colorectal adenocarcinoma); conditions: other ligands; inhibiting Ca2+ release in HT29 cells; 30 min pre-incubation, agonist at EC80
Procedure: Cells are seeded overnight in 96-well black walled, clear bottomed, plate at approximately 2×10^4 to 4×10^5 cells per well. […] The cells are then washed twice with HBSS and transferred to a Polarstar spectrofluorimeter (BMG, Durham N.C.).
The cells are prepared as outlined above then treated with the ‘putative’ antagonist 30 min prior to the addition of either trypsin or a synthetic agonist at a concentration equal to the agonists EC80.
The cells were then treated with 1 μM of the PAR2 agonist 2f-LIGRLO-NH2 (FIG. 2A, n=5) or 100 nM Trypsin (FIG. 2B, n=1). Each data point represents mean±SEM. Net changes in fluorescence were calculated as a percentage relative to the maximum response given 1 μM 2f-LIGRLO-NH2 or 100 nM Trypsin. Changes in fluorescence (% response) were plotted against logarithmic compound concentrations. The half maximal inhibitory concentration (IC50) values were derived from the dose response curve using a nonlinear regression curve in Graphpad Prism v5.

[5] = system: TNBS-induced chronic colitis; experiment: TNBS-induced chronic colitis model; type: in vivo, rat; conditions: 52 10 mg/kg/day, sulfasalazine 100 mg/kg/day p.o.
Procedure: On day 0, rats were weighed, given respective treatments of either sulfasalazine (100 mg/kg in olive oil p.o.), compound 52 (10 mg/kg in olive oil), or vehicle (500 l olive oil p.o.), and fasted for 24 h with water supplied ad libitum. The next day (day 1), rats were weighed, dosed with respective compound, and anesthetized with isofluorane. A polyethylene catheter was inserted intrarectally (8 cm). Control and drug-treated animals received an intracolonic dose of TNBS (80 mg/kg in saline and 250 l, 50% ethanol in water) (Fiorucci at al., 2001). Sham animals received vehicle only, with TNBS replaced by equivolume water. Rats were maintained in an inclined position (40°) for 30 min, then allowed to recover with food and water supplied. Rats were dosed daily with the respective compound, weighed, and scored for general health and disease progression. All rats were sacrificed on day 8 of experimentation unless they were sacrificed earlier. Disease progression and post-mortem colonic histopathology was scored by the following methods. PAR2 and tryptase co-localization were investigated by using immunohistochemistry.
DAI for both acute and chronic models was assessed and scored by an expert blinded to treatments. Scores incorporated mobility, gastrointestinal pathology, discomfort, and generalized sickness behaviour criteria (each scored 0-3). Any animal that reached stage 3 in any criteria was euthanized by CO2 inhalation and recorded as a disease-related mortality. Scores were summed and expressed as total disease score (maximum 12). DAI was measured at endpoint only (10 h) in the acute study and daily in the chronic TNBS study.
Colons were dissected post-mortem and given a macroscopic disease score based on that described previously (Bobin-Dubigeon et al., 2001) with some minor alterations (maximal score 14). The entire colon length was removed between the ileocolic and colorectal junction. Length and maximal distension width were measured. Sections of affected colon were taken for biochemical analysis, histology, and wet/dry weight.

PAR2 [6] = molecular target: T2, PAR2 (Mus musculus, UniProt P55086); experiment: Intracellular calcium mobilization in MIN6 beta cells; type: cell-based; conditions: concentration-dependent
T2 construct: endogenous in cells; host or cells: MIN6 (mouse pancreatic beta cell line)
T2 sequence (P55086 26-399): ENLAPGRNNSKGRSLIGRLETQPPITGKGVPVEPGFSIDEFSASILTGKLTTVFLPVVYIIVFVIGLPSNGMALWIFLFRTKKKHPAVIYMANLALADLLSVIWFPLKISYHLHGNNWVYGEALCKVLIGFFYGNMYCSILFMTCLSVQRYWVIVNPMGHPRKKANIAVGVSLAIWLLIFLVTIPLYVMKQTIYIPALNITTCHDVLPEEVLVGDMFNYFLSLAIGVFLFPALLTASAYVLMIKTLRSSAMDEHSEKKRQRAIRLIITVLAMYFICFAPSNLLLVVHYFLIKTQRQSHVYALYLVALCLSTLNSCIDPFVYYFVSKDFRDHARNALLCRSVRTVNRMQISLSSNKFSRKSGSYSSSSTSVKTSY
Procedure: Results: Pathogenesis of pancreatic dysfunction is linked to chronic nutritional surplus and elevated fatty acids, so in vivo and in vitro effects of compound 52 were evaluated on rat pancreas and mouse MIN6 beta cells. […] PAR2 agonists and compound 52 were further evaluated in vitro for glucose-stimulated insulin secretion (GSIS) and intracellular calcium mobilization in mouse MIN6 beta cells.

Compound: 2-furoyl-LIGRL-NH2
agonist potency higher than SLIGRL-NH2 (PAR2 [1]): ~20 fold
selectivity among PARs (PAR2 [1]): selective for PAR2 over PAR1 and PAR4

Compound: CC[C@H](C)[C@H](NC(=O)[C@H](CC1CCCCC1)NC(=O)c1ccno1)C(=O)NCc1ccccc1OC [Compound 18, 5-isoxazoyl-Cha-Ile-aminomethyl-(2-methoxy)phenyl]
paw swelling induced by 2-f-LIGRLO-NH2 [2]: reduced the paw swelling
stability in rat liver homogenate [3]: decomposed to varied degree

Compound: CC[C@H](C)[C@H](NC(=O)[C@H](CC1CCCCC1)NC(=O)c1ccno1)C(=O)N1CCC(c2ccccc2)CC1 [Compound 30, 5-isoxazoyl-Cha-Ile-(4-phenyl)piperidine]
paw swelling induced by 2-f-LIGRLO-NH2 [2]: reduced the paw swelling
stability in rat liver homogenate [3]: decomposed to varied degree

Compound: CC[C@H](C)[C@@H](NC(=O)[C@@H](N)CC1CCCCC1)C(=O)N1CCC2(C=Cc3ccccc32)CC1 [Compound 41]
IC50 (PAR2 [4]): 17 µM

Compound: CC[C@H](C)[C@@H](NC(=O)[C@H](CC1CCCCC1)NC(=O)c1cc(N)no1)C(=O)N1CCC2(C=Cc3ccccc32)CC1 [Compound 42, 5-(3-amino-isoxazoyl)-Cha-Ile-spiro[indene-1,4′-piperidine]]
paw swelling induced by 2-f-LIGRLO-NH2 [2]: reduced the paw swelling
stability in rat liver homogenate [3]: decomposed to varied degree

Compound: CC[C@H](C)[C@@H](NC(=O)[C@H](CC1CCCCC1)NC(=O)c1nc[nH]n1)C(=O)N1CCC2(C=Cc3ccccc32)CC1 [Compound 45]
IC50 (PAR2 [4]): 15 µM

Compound: CC[C@H](C)[C@@H](NC(=O)[C@H](CC1CCCCC1)NC(=O)c1cc(C)on1)C(=O)N1CCC2(C=Cc3ccccc32)CC1 [Compound 46]
IC50 (PAR2 [4]): 25 µM

Compound: CC[C@H](C)[C@@H](NC(=O)[C@H](CC1CCCCC1)NC(=O)c1ccno1)C(=O)N1CCC2(CCc3ccccc32)CC1 [Compound 53]
IC50 (PAR2 [4]): 3 µM

Compound: O=C(O)c1cc(/N=N/c2ccc(S(=O)(=O)Nc3ccccn3)cc2)ccc1O [sulfasalazine, reference compound]
TNBS-mediated mortality [5]: 33.3%
DAI compared with TNBS-controls ([5]; from day 2 onward): marked improvements in DAI

Compound: SLIGRL-NH2
intracellular calcium release in MIN6 beta cells (PAR2 [6]): activated intracellular calcium release

Compound: trypsin
intracellular calcium release in MIN6 beta cells (PAR2 [6]): activated intracellular calcium release

More lines, main results first:

stability in rat liver homogenate [3]: decomposed to varied degree
Compound: CO[C@H](C)[C@@H](NC(=O)[C@H](CC1CCCCC1)NC(=O)c1ccno1)C(=O)N1CCC2(C=Cc3ccccc32)CC1 [Compound 44, 5-isoxazoyl-Cha-Thr(Me)-spiro[indene-1,4′-piperidine]]
paw swelling induced by 2-f-LIGRLO-NH2 [2]: reduced the paw swelling

IC50 (PAR2 [4]): 10 µM
Compound: CC[C@H](C)[C@@H](NC(=O)[C@H](CC1CCCCC1)NC(=O)c1c[nH]cn1)C(=O)N1CCC2(C=Cc3ccccc32)CC1 [Compound 47]

IC50 (PAR2 [4]): 50 µM
Compound: CC[C@H](C)[C@@H](NC(=O)[C@H](CC1CCCCC1)NC(=O)C1CCNCC1)C(=O)N1CCC2(C=Cc3ccccc32)CC1 [Compound 48]

IC50 (PAR2 [4]): 25 µM
Compound: CC[C@H](C)[C@@H](NC(=O)[C@H](CC1CCCCC1)NC(=O)C1CCC(=O)N1)C(=O)N1CCC2(C=Cc3ccccc32)CC1 (some centres unmarked) [Compound 49]

IC50 (PAR2 [4]): 50 µM
Compound: CC[C@H](C)[C@@H](NC(=O)[C@H](CC1CCCCC1)NC(=O)C1CCCN1)C(=O)N1CCC2(C=Cc3ccccc32)CC1 (some centres unmarked) [Compound 50]

IC50 (PAR2 [4]): 5 to 10 µM
Compound: CC[C@H](C)[C@H](C(=O)N1CCC2(C=Cc3ccccc32)CC1)N(C)C(=O)[C@@H](N)CC1CCCCC1 [Compound 51]
